# Assay results: PubChem BioAssay AID2060513 (Molecular Pharmacology Branch, DTP, NCI, 2025)
# Values joined by “and” are separate entries in the source; they are usually repeats but may differ in a detail not shown here. Identical values can stand only once.
# System: 299254-011-R-J1-PDC complex spheroids viability
# Test: Anticancer human tumor 299254-011-R-J1-PDC patient-derived melanoma cell line growth inhibition [GQUAD]
# Conditions: for viability, T/C: stronger effect = lower value
# Description: DNA G-quadruplex Stabilizer Agents in Combinations in Complex Spheroids
# A high-throughput screen of multi-cell type tumor spheroids was designed to identify active combinations of DNA G-quadruplex stabilizer agents and targeted small molecules. Complex spheroids include a stromal component modeled by human endothelial cells (HUVEC) and fibroblasts modeled by human mesenchymal stem cells (MSCs). The concentration ranges selected for each drug and investigational agent were based upon clinically achievable concentrations if the clinical Cmax of the agent was known.
# Compounds. The drugs and investigational agents: pidnarulex (CX-5461; NSC782164), APTO-253 (NSC789042), BRACO-19 (NSC847499), peposertib (NSC802822), ceralasertib (NSC780249), elimusertib (NSC800525), camonsertib (NSC841442), AZD-1390 (NSC803789), olaparib (NSC753686), talazoparib (NSC767125), ART-558 (NSC835418), sotorasib (NSC818433), MRTX-1133 (NSC836407), SN-38 (NSC673596), topotecan (NSC609699), etoposide (NSC141540), doxorubicin (NSC123127), gemcitabine (NSC613327), 5-fluorouracil (NSC19893), paclitaxel (NSC125973), vemurafenib (NSC761431), panobinostat (NSC761190), R-306465 (JNJ-16241199; NSC773264), adavosertib (NSC754352), TP-3654 (NSC805149), carboplatin (NSC241240), KSQ-4279 (NSC840948), and staurosporine (NSC755774) were obtained from the National Cancer Institute (NCI) Developmental Therapeutics Program Chemical Repository (34). The FDA-approved anticancer drug set is available from the NCI Developmental Therapeutics Program. […] The stock solutions were prepared in dimethyl sulfoxide (DMSO, Sigma-Aldrich, St. Louis, MO, cat. D2650) at 800-fold the tested concentration and stored at -70 degrees C prior to their use. All drugs and investigational agents were tested over a range starting from a high concentration at or near the clinical Cmax and decreasing in half-log increments. If the clinical Cmax for an agent had not been determined, the highest concentration tested was 10 microM.
# 2.3 Cell Culture. All cells were maintained in an incubator at 37 degrees C and 5% CO2 with 95% humidity. The PDC lines were cultured according to standard operating procedures established by the NCI PDMR. All PDCs were thawed and cultured in Matrigel-coated flasks prepared with a working solution of 1X Ham's F-12 nutrient mix, without supplementation (Invitrogen, cat. 11765054), 100 U/mL penicillin-streptomycin (Invitrogen, cat. 15140122), and 2.5% Matrigel (Corning Inc., cat. 354248) for the first three passages. The 857933-349-R-J2-PDC line was cultured in 6C/Colon 1B media, which includes advanced DMEM/F-12 (Thermo Fisher Scientific, cat. 12634028), 10 mM HEPES (Thermo Fisher Scientific, cat. 15630080), 1X GlutaMAX supplement (Thermo Fisher Scientific, cat. 35050061), 0.1 mg/mL primocin (InvivoGen, cat. ant-pm-2), 10% defined fetal bovine serum, heat inactivated (HyClone Laboratories Inc., cat. SH30070.03HI), 50% L-WRN conditioned media (ATCC, cat. CRL-3276), 1.25 mM N-Acetyl-L-cysteine (Sigma-Aldrich, cat. A9165), 10 mM nicotinamide (Sigma-Aldrich, cat. N0636), 1X B-27 supplement (Thermo Fisher Scientific, cat. 17504044), 1X N-2 supplement (Thermo Fisher Scientific, cat. 17502048), 10 microM Y-27632 dihydrochloride (Tocris Bioscience, cat. 1254), and 50 ng/mL human EGF recombinant protein (Thermo Fisher Scientific, cat. PHG0311). The 485176-168-R4-J1-PDC line was cultured in Panc media, which includes all 6C/Colon 1B media components plus 100 ng/mL human FGF-10 (Thermo Fisher Scientific, cat. 100-26), 500 nM SB-431542 (Selleckchem, cat. S1067), and gastrin (Tocris, cat. 3006).
# […]
# [1] = curve of first compound, second compound 0.0316 µM
# [2] = curve of first compound, second compound 0.1 µM
# [3] = curve of first compound, second compound 0.316 µM
# [4] = curve of first compound, second compound 1 µM
# [5] = curve of first compound, second compound 3.16 µM
# [6] = curve of first compound, second compound 10 µM
# [7] = second compound 0.0316 µM, first compound 0.0316 µM
# [8] = second compound 0.0316 µM, first compound 0.1 µM
# [9] = second compound 0.0316 µM, first compound 0.316 µM
# [10] = second compound 0.0316 µM, first compound 1 µM
# [11] = second compound 0.0316 µM, first compound 3.16 µM
# [12] = second compound 0.0316 µM, first compound 10 µM
# [13] = second compound 0.1 µM, first compound 0.0316 µM
# [14] = second compound 0.1 µM, first compound 0.1 µM
# [15] = second compound 0.1 µM, first compound 0.316 µM
# [16] = second compound 0.1 µM, first compound 1 µM
# [17] = second compound 0.1 µM, first compound 3.16 µM
# [18] = second compound 0.1 µM, first compound 10 µM
# [19] = second compound 0.316 µM, first compound 0.0316 µM
# [20] = second compound 0.316 µM, first compound 0.1 µM
# [21] = second compound 0.316 µM, first compound 0.316 µM
# [22] = second compound 0.316 µM, first compound 1 µM
# [23] = second compound 0.316 µM, first compound 3.16 µM
# [24] = second compound 0.316 µM, first compound 10 µM
# [25] = second compound 1 µM, first compound 0.0316 µM
# [26] = second compound 1 µM, first compound 0.1 µM
# [27] = second compound 1 µM, first compound 0.316 µM
# [28] = second compound 1 µM, first compound 1 µM
# [29] = second compound 1 µM, first compound 3.16 µM
# [30] = second compound 1 µM, first compound 10 µM
# [31] = second compound 3.16 µM, first compound 0.0316 µM
# [32] = second compound 3.16 µM, first compound 0.1 µM
# [33] = second compound 3.16 µM, first compound 0.316 µM
# [34] = second compound 3.16 µM, first compound 1 µM
# [35] = second compound 3.16 µM, first compound 3.16 µM
# [36] = second compound 3.16 µM, first compound 10 µM
# [37] = second compound 10 µM, first compound 0.0316 µM
# [38] = second compound 10 µM, first compound 0.1 µM
# [39] = second compound 10 µM, first compound 0.316 µM
# [40] = second compound 10 µM, first compound 1 µM
# [41] = second compound 10 µM, first compound 3.16 µM
# [42] = second compound 10 µM, first compound 10 µM
# 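Note: spheroids exposed to the agents for seven days before readout.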
# 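Throughout, for viability, T/C: percent viability relative to DMSO vehicle control wells = 100%.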
smiles,measurement,setting,value
COc1ccc([C@@H](O)c2cc(-c3ncnc4cc(N5CCOCC5)ccc34)c(F)cc2Cl)nn1 + Cc1[nH]c2ccc(F)cc2c1-c1nc2c3cccnc3c3ncccc3c2[nH]1,IC50,[1],> 10 µM
same,IC50,[2],> 10 µM
same,IC50,[3],8.51 µM
same,IC50,[4],9.05 µM
same,IC50,[5],8.89 µM
same,IC50,[6],7.15 µM
same,"viability, T/C",[7],97.4%
same,"viability, T/C",[8],113%
same,"viability, T/C",[9],108%
same,"viability, T/C",[10],84.6%
same,"viability, T/C",[11],83.8%
same,"viability, T/C",[12],57.7%
same,"viability, T/C",[13],92%
same,"viability, T/C",[14],97.3%
same,"viability, T/C",[15],109%
same,"viability, T/C",[16],86.9%
same,"viability, T/C",[17],77.6%
same,"viability, T/C",[18],51%
same,"viability, T/C",[19],82.2%
same,"viability, T/C",[20],108%
same,"viability, T/C",[21],107%
same,"viability, T/C",[22],83.4%
same,"viability, T/C",[23],111%
same,"viability, T/C",[24],42.1%
same,"viability, T/C",[25],85.3%
same,"viability, T/C",[26],92.5%
same,"viability, T/C",[27],106%
same,"viability, T/C",[28],98.9%
same,"viability, T/C",[29],75.9%
same,"viability, T/C",[30],47.6%
same,"viability, T/C",[31],96.3%
same,"viability, T/C",[32],120%
same,"viability, T/C",[33],87.8%
same,"viability, T/C",[34],95%
same,"viability, T/C",[35],97.1%
same,"viability, T/C",[36],44.6%
same,"viability, T/C",[37],121%
same,"viability, T/C",[38],93.3%
same,"viability, T/C",[39],100%
same,"viability, T/C",[40],93.9%
same,"viability, T/C",[41],82.8%
same,"viability, T/C",[42],36.9%
O=C(c1cc(Cc2n[nH]c(=O)c3ccccc23)ccc1F)N1CCN(C(=O)C2CC2)CC1 + CN(C)c1ccc(Nc2c3ccc(NC(=O)CCN4CCCC4)cc3nc3cc(NC(=O)CCN4CCCC4)ccc23)cc1,IC50,[1],> 10 µM
same,IC50,[2],> 10 µM
same,IC50,[3],> 10 µM
same,IC50,[4],> 10 µM
same,IC50,[5],> 10 µM
same,IC50,[6],> 10 µM
same,"viability, T/C",[7],81.9%
same,"viability, T/C",[8],88.2%
same,"viability, T/C",[9],94%
same,"viability, T/C",[10],92.7%
same,"viability, T/C",[11],89.4%
same,"viability, T/C",[12],78.1%
same,"viability, T/C",[13],78.9%
same,"viability, T/C",[14],78.1%
same,"viability, T/C",[15],85.4%
same,"viability, T/C",[16],96.8%
same,"viability, T/C",[17],90.7%
same,"viability, T/C",[18],80.9%
same,"viability, T/C",[19],95.6%
same,"viability, T/C",[20],89.1%
same,"viability, T/C",[21],87.5%
same,"viability, T/C",[22],82.8%
same,"viability, T/C",[23],96.1%
same,"viability, T/C",[24],85.5%
same,"viability, T/C",[25],87.9%
same,"viability, T/C",[26],95.2%
same,"viability, T/C",[27],96%
same,"viability, T/C",[28],101%
same,"viability, T/C",[29],106%
same,"viability, T/C",[30],80.2%
same,"viability, T/C",[31],79.7%
same,"viability, T/C",[32],86.9%
same,"viability, T/C",[33],99.9%
same,"viability, T/C",[34],91.1%
same,"viability, T/C",[35],95.8%
same,"viability, T/C",[36],68.1%
same,"viability, T/C",[37],96.2%
same,"viability, T/C",[38],92.3%
same,"viability, T/C",[39],82.8%
same,"viability, T/C",[40],89.2%
same,"viability, T/C",[41],87.6%
same,"viability, T/C",[42],95%
Nc1ccn(C2OC(CO)C(O)C2(F)F)c(=O)n1 (stereo unspecified),"viability, T/C",compound 0.0316 µM,95.8% and 98.2% and 86.5%
same,"viability, T/C",compound 0.1 µM,83.6% and 88.4% and 76%
same,"viability, T/C",compound 0.316 µM,80.3% and 72.2% and 61.7%
same,"viability, T/C",compound 1 µM,41.2% and 60.1% and 52.5%
same,"viability, T/C",compound 3.16 µM,58.2% and 50.2% and 50.8%
same,"viability, T/C",compound 10 µM,53.6% and 73% and 51.9%
same,IC50,curve of compound,> 10 µM
